Laboratory results from PubChem BioAssay AID328 (DTP/NCI, 2004).
Where “and” joins values, the source holds several entries; their conditions need not be identical. Equal entries are not always repeated. Inconclusive results and toxic doses are left out. The calls were made as follows: active = survival T/C of 150% or more; inactive = T/C below 125% in these data.

Test system: BDF1 mice, P388 leukemia ip, median survival T/C
Assay: NCI In Vivo Anticancer Drug Screen. Data for tumor model P388 Leukemia (intraperitoneal) in B6D2F1 (BDF1) mice
Settings: endpoint: median survival time, higher = longer survival
In short: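 Vehicle-dosed animals serve as the reference; survival of compound-dosed, tumour-implanted mice is divided by it.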

[1] = dose: 50.0 mg/kg/injection, schedule: Q01DX009 (ip), vehicle: saline with Tween-80
[2] = dose: 100.0 mg/kg/injection, schedule: Q01DX009 (ip), vehicle: saline with Tween-80
[3] = dose: 200.0 mg/kg/injection, schedule: Q01DX009 (ip), vehicle: saline with Tween-80
[4] = dose: 100.0 mg/kg/injection, schedule: Q04DX003 (ip), vehicle: saline with Tween-80
[5] = dose: 200.0 mg/kg/injection, schedule: Q04DX003 (ip), vehicle: saline with Tween-80
[6] = dose: 400.0 mg/kg/injection, schedule: Q01DX009 (ip), vehicle: saline with Tween-80
[7] = dose: 400.0 mg/kg/injection, schedule: Q04DX003 (ip), vehicle: saline with Tween-80
[8] = dose: 25.0 mg/kg/injection, schedule: Q01DX009 (ip), vehicle: saline with Tween-80
[9] = dose: 12.5 mg/kg/injection, schedule: Q01DX001 (ip), vehicle: saline with Tween-80
[10] = dose: 25.0 mg/kg/injection, schedule: Q01DX001 (ip), vehicle: saline with Tween-80
[11] = dose: 50.0 mg/kg/injection, schedule: Q01DX001 (ip), vehicle: saline with Tween-80
[12] = dose: 50.0 mg/kg/injection, schedule: Q04DX003 (ip), vehicle: saline
[13] = dose: 100.0 mg/kg/injection, schedule: Q04DX003 (ip), vehicle: saline
[14] = dose: 200.0 mg/kg/injection, schedule: Q04DX003 (ip), vehicle: saline
[15] = dose: 400.0 mg/kg/injection, schedule: Q04DX003 (ip), vehicle: saline

Measured: T/C

N#Cc1nc2c(n(O)c1=N)CCCCCCCCCC2
inactive: [1] 95 % of control | [2] 92 % of control | [3] 92 % of control

CC1CN1P(=S)(N1CC1C)N1CC1C (stereo unspecified)
inactive: dose: 1.25 mg/kg/injection, schedule: Q01DX010 (ip), vehicle: saline 104 % of control | dose: 2.5 mg/kg/injection, schedule: Q01DX010 (ip), vehicle: saline 104 % of control | dose: 5.0 mg/kg/injection, schedule: Q01DX010 (ip), vehicle: saline 104 % of control | dose: 10.0 mg/kg/injection, schedule: Q01DX010 (ip), vehicle: saline 104 % of control

C1CC[N-]CC1.C1CC[N-]CC1.CS(C)=O.[Cl][Rh]([Cl])[Cl]
active: dose: 8.3 mg/kg/injection, schedule: Q01DX009 (ip), vehicle: saline 150 % of control | dose: 12.5 mg/kg/injection, schedule: Q01DX009 (ip), vehicle: saline 150 % of control and 155 % of control | dose: 18.7 mg/kg/injection, schedule: Q01DX009 (ip), vehicle: saline 150 % of control

CC1(C)c2ccccc2C(C)(O)c2ccccc21
inactive: [2] 100 % of control | [4] 100 % of control | [3] 100 % of control | [5] 96 % of control | [6] 112 % of control | [7] 96 % of control

COc1cc2c(cc1O)C(=O)CCCC2
inactive: [8] 97 % of control | [1] 101 % of control and 120 % of control | dose: 100.0 mg/kg/injection, schedule: Q01DX009 (ip), vehicle: Klucel (hydroxypropylcellulose) (HPC) 103 % of control | [2] 97 % of control | [4] 100 % of control | dose: 200.0 mg/kg/injection, schedule: Q01DX009 (ip), vehicle: Klucel (hydroxypropylcellulose) (HPC) 103 % of control | [5] 104 % of control | dose: 400.0 mg/kg/injection, schedule: Q01DX009 (ip), vehicle: Klucel (hydroxypropylcellulose) (HPC) 103 % of control | [7] 95 % of control

CCN(CC)CCOc1cccc(C)c1C
inactive: dose: 25.0 mg/kg/injection, schedule: Q04DX003 (ip), vehicle: saline with Tween-80 96 % of control | dose: 50.0 mg/kg/injection, schedule: Q04DX003 (ip), vehicle: saline with Tween-80 100 % of control | [4] 116 % of control

Cc1ccccc1CC(N)C(=O)O (stereo unspecified)
inactive: [1] 92 % of control | [2] 92 % of control | [3] 90 % of control

CCOC(=O)CC(C)(N)NC(N)=O (stereo unspecified)
inactive: dose: 100.0 mg/kg/injection, schedule: Q01DX001 (ip), vehicle: saline with Tween-80 110 % of control | [2] 115 % of control | dose: 100.0 mg/kg/injection, schedule: Q04DX003 (ip), vehicle: alcohol 110 % of control | dose: 200.0 mg/kg/injection, schedule: Q01DX001 (ip), vehicle: saline with Tween-80 95 % of control | [3] 105 % of control | dose: 200.0 mg/kg/injection, schedule: Q04DX003 (ip), vehicle: alcohol 105 % of control | dose: 400.0 mg/kg/injection, schedule: Q01DX001 (ip), vehicle: saline with Tween-80 110 % of control | [6] 105 % of control | dose: 400.0 mg/kg/injection, schedule: Q04DX003 (ip), vehicle: alcohol 110 % of control

CC(/C=N/N=C(N)N)=N\NC(N)=S
inactive: [1] 96 % of control | [2] 116 % of control | [3] 107 % of control

CC(=O)OCCN1c2ccccc2Sc2cnccc21
inactive: [4] 104 % of control | [5] 90 % of control | [7] 95 % of control

CCOC1CCC(C(C)=O)C(C#N)(C#N)C1(C#N)C#N (stereo unspecified)
inactive: dose: 6.25 mg/kg/injection, schedule: Q01DX001 (ip), vehicle: saline with Tween-80 108 % of control | [9] 123 % of control | [10] 110 % of control and 119 % of control | [11] 124 % of control

Cn1c(=O)c2c(ncn2C)n(C)c1=O
inactive: dose: 50.0 mg/kg/injection, schedule: Q01DX010 (ip), vehicle: saline 100 % of control | dose: 100.0 mg/kg/injection, schedule: Q01DX010 (ip), vehicle: saline 100 % of control | dose: 200.0 mg/kg/injection, schedule: Q01DX010 (ip), vehicle: saline 104 % of control

CN(N=O)c1ccc(/C=C/c2ccnc3ccccc23)cc1
inactive: dose: 100.0 mg/kg/injection, schedule: Q01DX009 (ip), vehicle: saline sonified 115 % of control

CC1(C)CC1(Br)Br
inactive: dose: 12.5 mg/kg/injection, schedule: Q01DX009 (ip), vehicle: saline with Tween-80 100 % of control | [8] 106 % of control | [2] 98 % of control and 100 % of control

CSCC(N)CO (stereo unspecified)
inactive: dose: 25.0 mg/kg/injection, schedule: Q04DX003 (ip), vehicle: saline 104 % of control | [12] 111 % of control and 116 % of control | [13] 116 % of control | [14] 109 % of control and 111 % of control | [15] 90 % of control and 120 % of control

CN1CC([N+](=O)[O-])C(=O)C([N+](=O)[O-])C1 (stereo unspecified)
inactive: dose: 50.0 mg/kg/injection, schedule: Q01DX005 (ip), vehicle: saline with Tween-80 92 % of control | dose: 100.0 mg/kg/injection, schedule: Q01DX005 (ip), vehicle: saline with Tween-80 87 % of control | dose: 200.0 mg/kg/injection, schedule: Q01DX005 (ip), vehicle: saline with Tween-80 103 % of control

COC1C(OC(=O)/C=C/C=C/C=C/C=C\C(=O)O)CCC2(CO2)C1C1(C)OC1CC=C(C)C (stereo unspecified)
inactive: [12] 110 % of control | [13] 105 % of control | [14] 110 % of control

CCCCCCCCCC[N+](C)(C)CCC[N+](C)(C)CCCCCCCCCC
inactive: dose: 0.78 mg/kg/injection, schedule: Q01DX009 (ip), vehicle: saline 87 % of control | dose: 1.56 mg/kg/injection, schedule: Q01DX009 (ip), vehicle: saline 98 % of control | dose: 3.12 mg/kg/injection, schedule: Q01DX009 (ip), vehicle: saline 100 % of control | dose: 3.13 mg/kg/injection, schedule: Q01DX009 (ip), vehicle: saline 120 % of control | dose: 6.25 mg/kg/injection, schedule: Q01DX009 (ip), vehicle: saline 116 % of control and 123 % of control

C1OC1CO[C@H]1CO[C@H]2[C@@H]1OC[C@H]2OCC1CO1 (stereo partly specified)
active: dose: 264.0 mg/kg/injection, schedule: Q04DX003 (ip), vehicle: saline 160 % of control and 168 % of control | [15] 180 % of control

CC1(C)C2CCC1(C)C1OC(=O)NN=C21 (stereo unspecified)
inactive: [9] 100 % of control | [10] 98 % of control | [11] 103 % of control

CC(=O)OCC(=O)[C@@]1(O)CC[C@H]2[C@@H]3CCC4=CC(=O)C=C[C@]4(C)[C@@]3(F)[C@@H](O)C[C@@]21C
inactive: dose: 12.5 mg/kg/injection, schedule: Q01DX009 (ip), vehicle: saline sonified 104 % of control | dose: 25.0 mg/kg/injection, schedule: Q01DX009 (ip), vehicle: saline sonified 109 % of control | dose: 50.0 mg/kg/injection, schedule: Q01DX009 (ip), vehicle: saline sonified 100 % of control

CC1CCCCN1O (stereo unspecified)
inactive: dose: 100.0 mg/kg/injection, schedule: Q04DX002 (ip), vehicle: saline with Tween-80 100 % of control | dose: 200.0 mg/kg/injection, schedule: Q04DX002 (ip), vehicle: saline with Tween-80 105 % of control | dose: 400.0 mg/kg/injection, schedule: Q04DX002 (ip), vehicle: saline with Tween-80 96 % of control

CCC(CC)c1ccccn1
inactive: dose: 50.0 mg/kg/injection, schedule: Q01DX009 (ip), vehicle: saline 104 % of control | dose: 100.0 mg/kg/injection, schedule: Q01DX009 (ip), vehicle: carboxymethylcellulose (CMC) 99 % of control | dose: 100.0 mg/kg/injection, schedule: Q01DX009 (ip), vehicle: saline 105 % of control | dose: 200.0 mg/kg/injection, schedule: Q01DX009 (ip), vehicle: carboxymethylcellulose (CMC) 108 % of control | dose: 200.0 mg/kg/injection, schedule: Q01DX009 (ip), vehicle: saline 113 % of control

CCOC(=O)C(Cc1ccc(N(CCCl)CCCl)cc1)NC(=O)C(N)CO (stereo unspecified)
active: dose: 5.0 mg/kg/injection, schedule: Q04DX003 (ip), vehicle: water 157 % of control | dose: 10.0 mg/kg/injection, schedule: Q04DX003 (ip), vehicle: water 263 % of control | dose: 20.0 mg/kg/injection, schedule: Q04DX003 (ip), vehicle: water 263 % of control
inactive: dose: 40.0 mg/kg/injection, schedule: Q04DX003 (ip), vehicle: water 105 % of control

O=C1Oc2ccccc2C(=O)/C1=C1\SSC(c2ccccc2)=C1c1ccccc1
inactive: [1] 99 % of control | [2] 96 % of control | [3] 96 % of control
